Read-outs that look alike come from different tables or passages of the source.
Tests used:
Assay type in all cases: cell-based
[1] = test system: PI-R: A multiple HIV-1 protease inhibitor resistant strain; assay: Anti-HIV activity against multiple protease inhibitor resistant HIV-1 strain (FIG. 1, FIG. 2)
From the text: (§1) FIG. 1: Anti-HIV activity of N-[3-β-O-(3′,3′-dimethylsuccinyl)-lup-20(29)-en-28-oyl]-11-aminoundecanoic acid (LH 55-1). PI-R: A multiple HIV-1 protease inhibitor resistant strain. RT-R: A multiple HIV-1 reverse transcriptase inhibitor resistant strain. NL4-3: A T-cell line adapted HIV-1 strain. NL4-3/AZT: The effect of the 1st anti-HIV drug AZT on the NL4-3 virus.
(§2) (PI-R: A multiple HIV-1 protease inhibitor resistant strain. FH-R: DSB resistant HIV-1 strain. FH=DSB).
(§3) FIG. 1 graphically illustrates the anti-HIV activity of Compound 12 (also called compound LH 55-1). In FIG. 1, PI-R represents a multiple HIV-1 protease inhibitor resistant strain of HIV-1. RT-R represents a multiple HIV-1 reverse transcriptase inhibitor resistant strain of HIV-1; NL4-3 represents a T-cell line adapted HIV-1 strain; and NL4-3/AZT represents the effect of AZT on the NL4-3 virus.
(§4) FIG. 2 graphically illustrates that multiple protease inhibitor resistant strains of HIV-1 and DSB resistant HIV-1 are sensitive to Compound 12 (LH55-1). PI-R indicates a multiple HIV-1 protease inhibitor resistant strain of HIV-1, and FH-R indicates a DSB resistant HIV-1 strain (FH=DSB).

[2] = test system: FH-R: DSB resistant HIV-1 strain; assay: Anti-HIV activity against DSB resistant HIV-1 strain (FIG. 2)
From the text: as §2, §4

[3] = test system: HIV-1 envelope-mediated membrane fusion (COS cells expressing NL4-3 envelope glycoproteins and Hela cells expressing CD4 and CXCR4); assay: Cell-cell fusion assay (HIV-1 entry, FIG. 3)
Experimental: FIG. 3. LH55-1 (compound 12) and compound 9 inhibit HIV-1 entry. Fusion between COS cells expressing NL4-3 envelope glycoproteins and Hela cells expressing CD4 and CXCR4 were performed in the presence of compound 9, 12 and T20 as indicated in the figure.
To determine the mechanisms of action, the ability of LH55-1 and compound 9 to inhibit HIV-1 entry were analyzed by using a cell-cell fusion assay. Inhibition of HIV-1 envelope-mediated membrane fusion will prevent HIV-1 from entering into the cells. […] T20 is a polypeptide fusion inhibitor recently approved for anti-HIV-1 therapy by FDA, USA.

[4] = test system: HIV-1 maturation (processing of P25 into p24); assay: Inhibition of viral maturation, Western blot of viral particles from ACH-2 cells (FIG. 4)
From the text: FIG. 4. LH55-1 (compound 12) inhibits HIV-1 maturation. HIV-1 viral particles produced from ACH-2 cells in the absence (A) or presence (B) of LH55-1. The collected viral samples were lysed and analyzed by using a Western blot. The primary antibody used for the Western blot is a HIV-1 positive human serum. Mw: Molecular weight standards.
P24 is the capsid protein of HIV-1 and is essential for viral infectivity. P25 is the precursor of p24. Inhibition of the processing of P25 into p24 will result in an immature viral particle without infectivity. […] Further studies in our laboratory indicate that the amino acids at the C-terminus of P24 are critical determinant for the drug sensitivity. The anti-HIV-1 maturation activity of LH55-1 is different from that of HIV-1 protease inhibitors since maturation of other HIV-1 gag proteins such as P17 in not affected by LH55-1.

[5] = test system: RT-R: A multiple HIV-1 reverse transcriptase inhibitor resistant strain; assay: Anti-HIV activity against multiple reverse transcriptase inhibitor resistant HIV-1 strain (FIG. 1)
From the text: as §1, §3

## C=C(C)C1CC[C@]2(C(=O)O)CC[C@]3(C)[C@H](CCC4[C@@]5(C)CCC(OC(=O)CC(C)(C)C(=O)O)C(C)(C)[C@@H]5CC[C@]43C)[C@@H]12 (stereo partly shown) [DSB, reference compound]
[1]
  anti-HIV activity / sensitivity of virus to compound: resistant
[2]
  sensitivity of virus to compound: resistant

## C=C(C)[C@@H]1CC[C@]2(C(=O)NC(CC(C)C)C(=O)O)CC[C@]3(C)[C@H](CCC4[C@@]5(C)CC[C@H](OC(=O)CC(C)(C)C(=O)O)C(C)(C)[C@@H]5CC[C@]43C)[C@@H]12 (stereo partly drawn) [compound 9, N-[3-β-O-(3′,3′-dimethylsuccinyl)-lup-20(29)-en-28-oyl]-L-leucine]
[3]
  anti-HIV-1 entry activity: exhibited anti-HIV-1 entry activity, albeit at higher concentrations than compound 12

## C=C(C)[C@@H]1CC[C@]2(C(=O)NCCCCCCCCCCC(=O)O)CC[C@]3(C)[C@H](CC[C@@H]4[C@@]5(C)CC[C@H](OC(=O)CC(C)(C)C(=O)O)C(C)(C)[C@@H]5CC[C@]43C)[C@@H]12 [compound 12, N-[3-β-O-(3′,3′-dimethylsuccinyl)-lup-20(29)-en-28-oyl]-11-aminoundecanoic acid]
[1]
  anti-HIV activity / sensitivity of virus to compound: substantial antiviral activity
[1]; listed as Compound 12
  anti-HIV activity / sensitivity of virus to compound: sensitive
[1]; listed as LH55-1
  anti-HIV activity / sensitivity of virus to compound: very sensitive
[4]
  maturation of other HIV-1 gag proteins such as P17: not affected
[4]; viral particles from ACH-2 cells
  processing of P25 into p24 (virion maturation): accumulation of P25
[2]
  sensitivity of virus to compound: sensitive
[2]; listed as LH55-1
  sensitivity of virus to compound: very sensitive
[3]
  anti-HIV-1 entry activity: potent HIV-1 entry inhibitor
  concentration blocking HIV-1 envelope-mediated membrane fusion: sub-micromolar
[5]
  anti-HIV activity: substantial antiviral activity
